{
  "source": "patent US9023853B2",
  "about": "“Janus kinase 2 (JAK2) inhibitor for the treatment of lupus” (Cephalon, Inc., priority 2010, dated 2015)",
  "assay_type_in_all_cases": "in vivo, mouse",
  "key": {"IL-12 [1]": {"system": "IL-12", "test": "Serum IL-12 (Luminex) in MRL/lpr mice", "experimental": "For the processing of serum samples for cytokine analysis, frozen plasma at -80° C. was thawed on ice, vortexed, and centrifuged for 10 minutes to remove debris and aggregates. A total of 25-50 μL of serum was used for Luminex® assays following the manufacturer's instructions. Ten different mouse cytokines were measured using the mouse cytokine 10-plex bead kit (Invitrogen, Carlsbad, Calif., no. LMC0001). Briefly, filter plates (Millipore, Billerica, Mass., no. […]10), were pre-wet with 200 μL of wash solution (kit component) and 25 μL of beads were added per well. Serum samples were diluted and a total volume of 50 μL was added per well (ie, 25 μL of sample serum plus 25 μL of assay diluent as provided by the manufacturer). Plates with beads were incubated for 2 hours at room temperature (RT) on an orbital shaker in the dark. At the end of the incubation, plate(s) were washed twice in kit buffer, secondary biotinylated antibody was added at a 1:10 dilution (100 μL) in biotin diluent provided with the kit. Plates were incubated at RT for 1 hour in the dark then washed twice in kit buffer. Strepavidin in assay diluent was added at 100 μL per well, then incubated for 30 minutes at RT in the dark. The plates were washed 3 times then 100 μL of kit wash solution was added and agitated for 2-3 minutes at RT in the dark. […]"}, "[2]": {"system": "anti-chromatin antibody secreting cells (ASCs)", "test": "Anti-chromatin antibody secreting B-cell Elispot, MRL/lpr spleen", "details": "MRL/lpr mice; 100 mg/kg; p<0.001", "experimental": "B-cell Elispot components were ordered from MabTech (Nacka Strand, Sweden) and nitrocellulose IP filter plates were ordered from Millipore (Billerica, Mass.). […] Spleens were processed using glass homogenization, filtered through a 60 μm sterile cell strainer and red blood cells (RBCs) lysed using BioLegend (San Diego, Calif.) lysis buffer. Processed splenocytes were added to each well in culture medium. To avoid skewing of true ex vivo frequencies of antibody secreting cell types (ASCs), cells were not stimulated with a polyclonal mitogen like LPS, but rather incubated in media alone to allow monitoring of genuine ex vivo antibody release. Anti-mouse pan-IgG was used as a positive control for total IgG producing ASCs and was used to normalize results. Frequencies for each antigen were identified in an initial test phase for each model. […] Different numbers of splenocytes were added for different antigens due to saturation limits of spot frequencies per well. These limits were previously established. B-cell Elispots were incubated overnight at 37° C. To develop each assay, secondary antibody was added to each well, incubated, washed and alkaline phosphatase strepavidin was used as the conjugate; substrate used was BCIP-NBT. Plates were developed until spots were visible. […]"}, "IL-12 [3]": {"system": "IL-12", "test": "Serum IL-12 (Luminex) in NZM mice", "experimental": "(§1) For the processing of serum samples for cytokine analysis, frozen plasma at −80° C. was thawed on ice, vortexed, and centrifuged for 10 minutes to remove debris and aggregates. A total of 25-50 μL of serum was used for Luminex® assays following the manufacturer's instructions. Ten different mouse cytokines were measured using the mouse cytokine 10-plex bead kit (Invitrogen, Carlsbad, Calif., no. LMC0001). Briefly, filter plates (Millipore, Billerica, Mass., no. MAIPSWU10), were pre-wet with 200 μL of wash solution (kit component) and 25 μL of beads were added per well. […]\n(§2) Age mated, female, NZM or NZW/LacJ, mice were matured for the study of lupus nephritis for a total of 7 months or 210 days at which time urine was collected for proteinuria detection. Mice with 0.5-1.0 mg/ml of urine protein as determined by an optical density-based total protein precipitation assay and cross-checked for 30-300 mg/dl of protein as determined by a stick assay were considered proteinuria positive and selected for study entry. […] End-stage lupus nephritis was evaluated by histopathology and scored by a board certified pathologist for the assessment of total renal damage in diseased animals using the scoring method described by Smith et al (Smith, Dong et al. 2007). […]"}, "IL-4": {"system": "IL-4", "test": "Serum IL-4 in NZM mice", "experimental": "as §1, §2"}},
  "data": [
    {"molecule": "CN1CCN(c2cccc(Nc3nc4c(-c5ccc(S(C)(=O)=O)cc5)cccn4n3)c2)CC1", "note": "[COMPOUND A, [8-(4-methanesulfonyl-phenyl)-[1,2,4]triazolo[1,5-a]pyridin-2-yl]-[3-(4-methyl-piperazin-1-yl)-phenyl]-amine]", "values": [
      {"measurement": "serum IL-12 decrease compared to vehicle", "setting": "IL-12 [1]; 55 mg/kg p.o. b.i.d.", "result": 50.7, "unit": "%"},
      {"measurement": "serum IL-12 decrease compared to vehicle", "setting": "IL-12 [1]; 100 mg/kg p.o. b.i.d.", "result": 56.1, "unit": "%"},
      {"measurement": "frequency of anti-chromatin ASCs in the spleen, decrease vs vehicle", "setting": "[2]", "result": 89.1, "unit": "%"},
      {"measurement": "serum IL-12 decrease compared to vehicle", "setting": "IL-12 [3]; 55 mg/kg", "result": 99.4, "unit": "%"},
      {"measurement": "serum IL-12 decrease compared to vehicle", "setting": "IL-12 [3]; 100 mg/kg", "result": 99.9, "unit": "%"},
      {"measurement": "serum IL-4 decrease compared to vehicle", "setting": "IL-4; 55 mg/kg", "result": 98.7, "unit": "%"},
      {"measurement": "serum IL-4 decrease compared to vehicle", "setting": "IL-4; 100 mg/kg", "result": 91.8, "unit": "%"}
    ]}
  ]
}
